Results taken from ChEMBL document CHEMBL4651402, “Screening of ~5500 FDA-approved drugs and clinical candidates for anti-SARS-CoV-2 activity” (2021).

System: SARS-CoV-2
Assay: microbe, parasite or virus in culture
Details: Severe acute respiratory syndrome coronavirus 2, Vero C1008, 48 h

Structure (SMILES)	IC50	IC50 (read-out: pIC50 (converted))
C[C@]12C=CC(=O)C=C1CCC1C2C(O)C[C@@]2(C)C1CC[C@]2(O)C(=O)COC(=O)c1cccc(S(=O)(=O)O)c1 (stereo partly specified)	> 20 µM	> 20 µM
CN1C(=O)CN=C(c2ccccc2)c2cc(Cl)ccc21 [DIAZEPAM]	> 20 µM	> 20 µM
N#CCC1CCN(c2nc(Nc3ccc(N4CCC(O)CC4)cc3)c3c(=O)[nH]ncc3n2)CC1 [GUSACITINIB]	> 20 µM	> 20 µM
Nc1nc(=O)n([C@H]2C[C@H](O)[C@@H](CO)O2)cc1I [IBACITABINE]	> 20 µM	> 20 µM
Cc1cc(C(C)(C)C)cc(C)c1CC1=NCCN1 [XYLOMETAZOLINE]	> 20 µM	> 20 µM
CO[C@H]1C[C@@H]2CC[C@@H](C)[C@@](O)(O2)C(=O)C(=O)N2CCCC[C@H]2C(=O)O[C@H]([C@H](C)C[C@@H]2CC[C@@H](OC(=O)C(C)(CO)CO)[C@H](OC)C2)CC(=O)[C@H](C)/C=C(\C)[C@@H](O)[C@@H](OC)C(=O)[C@H](C)C[C@H](C)/C=C/C=C/C=C/1C [TEMSIROLIMUS]	> 20 µM	> 20 µM
OCCc1ccccc1 [PHENYLETHYL ALCOHOL]	> 20 µM	> 20 µM
CCCCC/C=C\C/C=C\C/C=C\C/C=C\CCCC(=O)NCCO [ANANDAMIDE]	> 20 µM	> 20 µM
CN(C)[C@@H]1[C@@H]2C=CC[C@H]1c1ccccc1C2	> 20 µM	> 20 µM
CC(C)(O/N=C(\C(=O)N[C@@H]1C(=O)N2C(C(=O)[O-])=C(C[n+]3ccccc3)CS[C@H]12)c1csc(N)n1)C(=O)O [CEFTAZIDIME]	> 20 µM	> 20 µM
CC12C=CC(=O)C=C1CCC1C2CCC2(C)C1CC[C@]2(C)O (stereo partly specified)	> 20 µM	> 20 µM
C/C=C/CC(C)C(O)C1C(=O)NC(CC)C(=O)N(C)CC(=O)N(C)C(C(C)CC)C(=O)NC(C(C)C)C(=O)N(C)C(CC(C)C)C(=O)NC(C)C(=O)NC(C)C(=O)N(C)C(CC(C)C)C(=O)N(C)C(CC(C)C)C(=O)N(C)C(C(C)C)C(=O)N1C (stereo unspecified)	> 20 µM	> 20 µM
CCN(CC)C(=O)C1C=C2c3cccc4[nH]cc(c34)CC2N(C)C1 (stereo unspecified)	> 20 µM	> 20 µM
CCOC(=O)C1(c2ccccc2)CCCN(C)CC1 (stereo unspecified) [ETHOHEPTAZINE]	> 20 µM	> 20 µM
CCN1CCCC(OC(=O)C(c2ccccc2)c2ccccc2)C1 (stereo unspecified) [PIPERIDOLATE]	> 20 µM	> 20 µM
CS(=O)(=O)CCNCc1ccc(-c2ccc3ncnc(Nc4ccc(OCc5cccc(F)c5)c(Cl)c4)c3c2)o1 [LAPATINIB]	> 20 µM	> 20 µM
[N-]=[N+]=N[C@]1(CO)O[C@@H](n2ccc(N)nc2=O)[C@H](O)[C@@H]1O [4'-AZIDOCYTIDINE]	> 20 µM	> 20 µM
CCOC(=O)Nc1ccc2c(c1)N(C(=O)CCN(CC)CC)c1ccccc1S2 [ETHACIZINE]	> 20 µM	> 20 µM
CCCCCCCCCCCCCCCC(=O)NCCO [PALMIDROL]	> 20 µM	> 20 µM

Structure (SMILES)	IC50	IC50 (read-out: pIC50 (converted))
CN(C)CCCOC1(Cc2ccccc2)CCCCCC1 [BENCYCLANE]	> 20 µM	> 20 µM
CC(=O)Oc1cccc(C)c1	> 20 µM	> 20 µM
COc1cc(Br)c(CC2c3cc(OC)c(OC)cc3CCN2C)cc1OC (racemic)	> 20 µM	> 20 µM
CC(C)(C)NCC(O)COc1ccccc1C#N (stereo unspecified) [BUNITROLOL]	> 20 µM	> 20 µM
CC(=O)Nc1ccc(C(=O)O)cc1 [ACEDOBEN]	> 20 µM	> 20 µM
S=C(Nc1ccccc1)Nc1nccs1	> 20 µM	> 20 µM
C=C1[C@@H](O)C2/C=C\C[C@H](C)C(=O)[C@](C)(O)/C=C/[C@@H](OC(C)=O)[C@]23C(=O)N[C@H](Cc2ccccc2)[C@@H]3[C@@H]1C (stereo partly specified)	> 20 µM	> 20 µM
c1cncc([C@@H]2CCCCN2)c1 [ANABASINE]	> 20 µM	> 20 µM
CC(O)(CC(=O)O)CC(=O)O [MEGLUTOL]	> 20 µM	> 20 µM
CCCCNc1ccc(C(=O)OCCN(C)C)cc1 [TETRACAINE]	> 20 µM	> 20 µM
NC(=O)NC(CCC(=O)O)C(=O)O (stereo unspecified)	> 20 µM	> 20 µM
C[C@@H](C(=O)O)c1ccc(-c2ccccc2)c(F)c1 [TARENFLURBIL]	> 20 µM	> 20 µM
COc1cc(C(=S)N2CCOCC2)cc(OC)c1OC [TRITIOZINE]	> 20 µM	> 20 µM
CCOC(=O)N1CCC(=O)N(c2ccccc2)c2cc(Cl)ccc21 [ARFENDAZAM]	> 20 µM	> 20 µM
CN(C)C1CCc2[nH]c3c(F)cc(F)cc3c2C1 (stereo unspecified) [FLUCINDOLE]	> 20 µM	> 20 µM
Cc1cccc(C)c1NC1=NCCCS1 [XYLAZINE]	> 20 µM	> 20 µM
N=C(N)c1ccc(C(=O)N[C@@H](Cc2ccc(O)cc2)C(=O)N2CCC(OCC(=O)O)CC2)cc1 [LAMIFIBAN]	> 20 µM	> 20 µM
CC(=O)O[C@]1(C(C)=O)CCC2C3CCC4=CC(=O)CCC4C3C(C)CC21C (stereo partly specified)	> 20 µM	> 20 µM
O=C(OC(C(F)(F)F)C(F)(F)F)N1CCN(Cc2ccc(C(F)(F)F)cc2N2CCCC2)CC1 [ELCUBRAGISTAT]	> 20 µM	> 20 µM
